Measured values from patent US7531320B2, “Modulation of β-catenin/TCF-activated transcription” (priority 2003, dated 2009).

What was measured:
[1] = test system: nuclear β-catenin in SW480 cells; test: β-catenin immunofluorescence and western blot localization in SW480 cells; assay type: cell-based, human; conditions: 25 μM, 24 hours
Description: FIG. 4. COMPOUND 1 decreases nuclear β-catenin • A. β-catenin immunofluorescence microscopy. Log phase SW480 (left) and HCT116 (right) cells were fixed and stained with either anti-β-catenin red (upper panel, A) or anti-CBP (upper panel, B) green. The center panel represents the superimposed β-catenin and CBP in SW480 (left) and HCT116 (right) cells. […] 25 μg of total protein from the cell extracts of SW480 cells with or without 24 hr treatment of COMPOUND1 was used for detection of cytosolic and nuclear β-catenin.
Immunofluorescence was used to examine the localization of CBP and β-catenin in SW480 and HCT116 cells treated with COMPOUND 1 (25 μM) or control (0.5% DMSO). Cells at log phase were seeded and after 24 hours, the cells were treated with COMPOUND 1 or control. 24 hours post treatment, cells were fixed. The coverslips were incubated with antibodies raised against CBP (A-22) (Santa Cruz Biotechnology) and β-catenin (Transduction Laboratories), respectively. The slides were examined using a Nikon PCM 2000 Laser Scanning Confocal Microscope after the secondary antibodies conjugated to either FITC or TRITC (Jackson ImmunoResearch, Westgrove, Pa.) were applied.
The subcellular distribution of β-catenin and CBP was examined in order to determine whether the localization of either was affected by COMPOUND 1. […]

[2] = test system: hnkd; test: Real Time RT-PCR in SW480 cells, hnkd; assay type: cell-based, human; conditions: 25 μM; for ΔCT hnkd: relative to β-actin
Description: The RNeasy Midi Kit (Qiagen) was used for RNA extraction and Real Time RT-PCR was performed according to the protocol provided with the SYBR Green PCR Master Mix Kit (Perkin Elmer Biosystems, Shelton, Conn.). The primers used for cyclin D1, axin2, hnkd, c-myc, c-jun, and fra-1 amplifications were: cyclin D1 forward primer:5′-[…]-CCTGCTG-3′ (SEQ ID NO: 32) reverse primer: 5′-[…]-3′ (SEQ ID NO: 33) leading to a product size of approximately 300 bp; axin2 forward primer: 5′-[…] GGAAA-CT-3′ (SEQ ID NO: 34) and reverse primer: 5′-[…]-GAGA-3′ (SEQ ID NO: 35); hnkd forward primer: 5′-[…] TTGCGT-3′ (SEQ ID NO: 36) and the reverse primer: 5′-[…] ACGT-3′ (SEQ ID NO: 37); c-myc forward primer: 5′-GAA-[…] CTGC-3′ (SEQ ID NO: 38) and reverse primer: 5′-[…]-G-3′ (SEQ ID NO: 39); c-jun forward primer: 5′-[…]-3′ (SEQ ID NO: 40) and reverse primer: 5′-[…]-3′ (SEQ ID NO: 41); fra-1 forward primer: 5′-ACC-[…]-[…]-3′ (SEQ ID NO: 42) and reverse primer: 5′-[…]-TT-3′ (SEQ ID NO: 43). β-actin was used for normalization. […]
1 μg of mRNA, for each time point, was subjected to Real Time RT-PCR. Expression level of endogenous cyclin D1, c-myc, fibronectin, hnkd, axin2, c-jun, and BMP-4 were measured relative to β-actin. Quantitation of The ΔCycle of Threshold (CT) values was determined by subtracting the average values of each set by the corresponding average values obtained for β-actin. […]
The cyclin D1 gene is inappropriately expressed in many different tumor types, and is known to be a direct target of the Wnt/β-catenin pathway (Shtutman et al., “The cyclin D1 gene is a target of the beta-catenin/LEF-1 pathway,” Proc. Natl. Acad. Sci. USA 96:5522-27 (1999); Tetsu et al., “Beta-catenin regulates expression of cyclin D1 in colon carcinoma cells,” Nature 398:422-26 (1999)). […] Expression level of endogenous cyclin D1, c-myc, fibronectin, hnkd, axin2, c-jun, and BMP-4 were measured relative to β-actin. Quantitation of The ΔCycle of Threshold (CT) values was determined by subtracting the average values of each set by the corresponding average values obtained for β-actin. […]

Q: O=C1C(Cc2ccc(O)cc2)N2C(=O)CCN(C(=O)NCc3ccccc3)C2CN1Cc1cccc2ccccc12 (stereo not shown) [COMPOUND 1] was tested. Which “Subcellular distribution of β-catenin” value [1] did it give?
A: caused translocation of β-catenin to the cytoplasm

Q: And the “mRNA hnkd (direction)” value [2]?
A: ↓

Q: What about the ΔCT hnkd ([2]; 4 hours) of the same compound?
A: 0.3

Q: What about the ΔCT hnkd ([2]; 8 hours) of the same compound?
A: 1.0
